Results on 31 compounds are retold here after patent US20110071197A1, “BIS-ARYL COMPOUNDS FOR USE AS MEDICAMENTS” (priority 2008, published 2011).

In the first experiment the target is T1, Recombinant human LTC4 synthase (Homo sapiens, UniProt Q16873).
T1 construct: made in house; host or cells: Pichia pastoris
T1 sequence (Q16873 1-150): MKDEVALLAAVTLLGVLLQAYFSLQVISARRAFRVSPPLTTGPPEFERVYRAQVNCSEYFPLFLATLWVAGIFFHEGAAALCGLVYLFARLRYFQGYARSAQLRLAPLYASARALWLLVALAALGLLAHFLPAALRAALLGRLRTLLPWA
The experiment can be described thus: LTC4 synthase in vitro assay (HTRF detection of LTC4). The class given is biochemical. The note with it: compound concentration 3 μM; HTRF method. The protocol:
Alternatively HTRF detection of LTC4 can be used:
In the assay, LTC4 synthase catalyses the reaction where the substrate LTA4 is converted to LTC4. Recombinant human LTC4 synthase is expressed in Piccia pastoralis and the purified enzyme is dissolved in 25 mM Tris-buffer pH 7.8 supplemented with 0.1 mM glutathione (GSH) and stored at −80° C. The assay is performed in phosphate buffered saline (PBS) pH 7.4 and 5 mM GSH in 384-well plates.
The following is added chronologically to each well: • 1. 48 μl LTC4 synthase in PBS with 5 mM GSH. The total protein concentration in this solution is 0.5 μg/ml. • 2. […] Incubation of the plate at room temperature for 10 minutes. • 4. 1 μl LTA4 (final conc. 2.5 μM). • 5. Incubation of the plate at room temperature for 5 minutes. • 6. 10 μl of the incubation mixture is analysed using homogeneous time resolved fluorescent (HTRF) detection.
Background: Time-resolved FRET reads energy transfer from a long-lived donor to a nearby acceptor.
Usually inhibition stands for the share of the control response that was lost under treatment. Take `Cc1nc(C(F)(F)F)ccc1C(=O)Nc1ccc(Oc2ccc(NC(=O)c3ccc(C(F)(F)F)cc3)c(C(=O)O)c2)cc1` [8:5, 5-[4-((2-methyl-6-(trifluoro-methyl)-pyridine-3-carbonyl)-amino)-phenoxy]-2-(4-(trifluoro-methyl)-benzoylamino)-benzoic acid]: the inhibition at 3 µM amounted to 83%.

The experiment is the same for the next values; noted with them: total concentration of title compound in the assay 10 μM; HTRF method.
With `Cc1nc(C(F)(F)F)ccc1C(=O)Nc1ccc(Oc2ccc(NS(=O)(=O)c3cc(Cl)cc(Cl)c3O)c(C(=O)O)c2)cc1` [21:2, 2-(3,5-Dichloro-2-hydroxy-benzene-sulfonylamino)-5-{4-[(2-methyl-6-trifluoromethyl-pyridine-3-carbonyl)-amino]-phenoxy}-benzoic acid], the inhibition at 10 µM amounted to 98%.

Regarding `CCCCOc1ccc(S(=O)(=O)Nc2ccc(Oc3cccc(C(=O)NS(=O)(=O)c4ccc(F)cc4)c3)cc2C(=O)OC(C)(C)C)cc1` [20:4, 2-(4-Butoxy-benzenesulfonylamino)-5-[3-(4-fluoro-benzenesulfonylamino-carbonyl)-phenoxy]-benzoic acid t-butyl ester], the inhibition at 10 µM turned out to be 99%.

As to `O=C(Nc1ccc(Oc2ccc(NC(=O)c3ccccc3)c(C(=O)O)c2)cc1C(=O)O)c1ccccc1` [4:2, 5-[3-carboxy-4-benzamido-phenyloxy]-2-benzamidobenzoic acid], the inhibition at 10 µM is 93%.

On to `CCCCOc1ccc(S(=O)(=O)Nc2ccc(Oc3ccc(NC(=O)c4ccc(OC(C)C)cc4)c(C(=O)O)c3)cc2/C=C/C(=O)O)cc1` [Example 22:4, 5-[4-(4-butoxybenzenesulfonyl-amino)-3-((E)-2-carboxyvinyl)-phenoxy]-2-(4-isopropoxy-benzoylamino)benzoic acid], for which the inhibition at 10 µM came out at 100%.

In the case of `CCCCc1ccc(C(=O)Nc2ccc(Oc3ccc(NC(=O)c4ccc(F)c(Cl)c4)c(C(=O)O)c3)cc2C(=O)O)cc1` [2:7, 5-[3-carboxy-4-(3-chloro-4-fluorobenz-amido)-phenyloxy]-2-(4-butylbenz-amido)benzoic acid], the “% inh.” value is recorded as 100%.

On to `CCCCc1ccc(C(=O)Nc2ccc(Oc3ccc(NC(=O)c4cc(Cl)cc(Cl)c4)c(C(=O)O)c3)cc2C(=O)O)cc1` [2:6, 5-[3-carboxy-4-(3-chloro-5-chloro-benzamido)-phenyloxy]-2-(4-butylbenz-amido)benzoic acid], for which the “% inh.” value was found to be 100%.

On to “2-(2,3-dichlorobenzylamino)-5-{4-[(4-methoxybenzene-sulfonyl)methyl-amino]-phenoxy}benzoic acid [Example 11:12]”, for which the “% inh.” value is reported as 92%.

For the compound `O=C(O)c1cc(Oc2ccc(Nc3ccc(Cl)cc3)cc2)ccc1Nc1ccc(Cl)cc1` [12:5, 2-(4-chloro-phenylamino)-5-[4-(4-chloro-phenylamino)-phenoxy]-benzoic acid], the inhibition at 10 µM came out at 96%.

For the compound `O=C(Nc1cccc(Oc2ccc(NC(=O)c3ccc(C(F)(F)F)cc3F)c(C(=O)O)c2)c1)c1cccc(C(F)(F)F)c1` [10:5, 2-(2-fluoro-4-trifluoromethylbenzoyl-amino)-5-[3-(3-trifluoro-methylbenzoylamino)phenoxy]benzoic acid], the “% inh.” value was found to be 98%.

As to `O=C(Nc1ccc(Oc2ccc(NC(=O)c3cc([N+](=O)[O-])ccc3Cl)c(C(=O)O)c2)cc1C(=O)O)c1cccc(Cl)c1` [2:4, 5-[3-carboxy-4-(3-nitro-6-chlorobenz-amido)-phenyloxy]-2-(3-chlorobenz-amido)benzoic acid], the “% inh.” value was 99%.

With `CCCCOc1ccc(S(=O)(=O)Nc2ccc(Oc3cccc(NCc4cccc(Cl)c4F)c3)cc2C(=O)O)cc1` [23:4, 2-(4-Butoxybenzenesulfonylamino)-5-[3-(3-chloro-2-fluorobenzylamino)-phenoxy]benzoic acid], the inhibition at 10 µM came to 99%.

For `CCCCc1ccc(C(=O)Nc2cccc(Oc3ccc(NC(=O)c4c(F)cccc4F)c(C(=O)O)c3)c2)cc1` [10:1, 5-[(3-(4-(1-butyl)benzoylamino)-phenoxy)]-2-(2,6-difluorobenzoyl-amino)benzoic acid], the inhibition at 10 µM was determined as 98%.

As to `Cc1c(Cl)cccc1S(=O)(=O)Nc1ccc(Oc2ccc(Nc3ccc(F)c(F)c3)c(C(=O)O)c2)cn1` [Example 33:2, 5-(6-(3-Chloro-2-methylphenylsulfonamido)pyridin-3-yloxy)-2-(3,4-difluorophenylamino)benzoic acid], the inhibition at 10 µM worked out at 99%.

In the case of `O=C(Nc1ccc(Oc2cccc(S(=O)(=O)Nc3ccc(F)c(F)c3)c2)cc1C(=O)O)c1ccc(Cl)cc1Cl` [19:3, 2-(2,4-Dichloro-benzoylamino)-5-[3-(3,4-difluoro-phenylsufamoyl)-phenoxy]-benzoic acid], the “% inh.” value worked out at 100%.

`CC(C)(C)c1ccc(C(=O)Nc2ccc(Oc3ccc(NC(=O)c4cccnc4Cl)c(C(=O)O)c3)cc2)cc1` [8:16, 5-[4-(4-tert-Butylbenzoyl-amino)phenoxy]-2-[(2-chloro-pyridine-3-carbonyl)-amino]benzoic acid]: the inhibition at 10 µM amounted to 99%.

Turning to `CCCCN(c1ccc(F)c(F)c1)c1ccc(Oc2ccc(Nc3ccc(F)c(F)c3)c(C(=O)O)c2)cc1C(=O)O` [Example 24:3, 2-[butyl-(3,4-difluorophenyl)amino]-5-[3-carboxy-4-(3,4-difluorophenyl-amino)phenoxy]benzoic acid], the inhibition at 10 µM was 97%.

Take `COc1ccc(S(=O)(=O)N(C)c2ccc(Oc3ccc(NC(=O)c4ccc(Cl)cc4Cl)c(C(=O)O)c3)cc2)cc1` [11:4]: the “% inh.” value worked out at 98%.

In the case of `COc1cc(Cl)ccc1C(=O)Nc1ccc(Oc2ccc(NC(=O)c3ccc(C(C)(C)C)cc3)cc2)cc1C(=O)O` [8:19, 5-[4-(4-tert-Butylbenzoyl-amino)phenoxy]-2-(4-chloro-2-methoxybenzoylamino)-benzoic acid], the inhibition at 10 µM is 99%.

In the case of `CC(C)(C)c1ccc(C(=O)Nc2ccc(Oc3ccc(NC(=O)c4cc(Cl)cnc4Cl)c(C(=O)O)c3)cc2)cc1` [8:17, 5-[4-(4-tert-Butylbenzoyl-amino)phenoxy]-2-[(2,5-di-chloropyridine-3-carbonyl)-amino]benzoic acid], the inhibition at 10 µM was found to be 98%.

For the compound `CC(C)Oc1ccc(C(=O)Nc2ccc(Oc3ccc(NC(=O)c4ccc(Cl)cc4Cl)c(CC(=O)O)c3)cc2C(=O)O)cc1` [6:6, 5-[3-carboxymethyl-4-(2,4-dichloro-benzoyl-amino)phenoxy]-2-(4-isopropoxybenzoyl-amino)benzoic acid], the inhibition at 10 µM stood at 98%.

Turning to `CCCCc1ccc(C(=O)Nc2ccc(Oc3ccc(NS(=O)(=O)c4ccc(S(C)(=O)=O)cc4)cc3)cc2C(=O)O)cc1` [11:8, 2-(4-butylbenzoylamino)-5-[4-(4-methanesulfonylbenzene-sulfonylamino)phenoxy]benzoic acid], the inhibition at 10 µM is 98%.

`CC(C)(C)c1ccc(C(=O)Nc2ccc(Oc3ccc(NC(=O)c4ccccc4Cl)c(C(=O)O)c3)cc2)cc1` [Example 8:15, 5-[4-(4-tert-Butylbenzoyl-amino)phenoxy]-2-(2-chloro-benzoylino)benzoic acid]: the “% inh.” value is 98%.

On to `Cc1nc(C(F)(F)F)ccc1C(=O)Nc1ccc(Oc2ccc(NS(=O)(=O)c3ccc(F)c(Cl)c3)c(C(=O)O)c2)cc1` [21:1, 2-(3-Chloro-4-fluoro-benzenesulfonylamino)-5-{4-[(2-methyl-6-trifluoromethyl-pyridine-3-carbonyl)-amino]-phenoxy}-benzoic acid], for which the inhibition at 10 µM was determined as 100%.

On to `O=C(Nc1ccc(Oc2ccc(NC(=O)c3ccc([N+](=O)[O-])cc3)c(C(=O)O)c2)cc1C(=O)O)c1ccccc1` [5:2, 5-[3-carboxy-4-(4-nitrobenzamido)-phenyloxy]-2-benzamidobenzoic acid], for which the inhibition at 10 µM turned out to be 99%.

Take `COc1ccc(S(=O)(=O)N(C)c2ccc(Oc3ccc(NC(=O)c4c(F)cccc4F)c(C(=O)O)c3)cc2)cc1` [11:16, 2-(2,6-Difluoro-benzoylamino)-5-{4-[(4-methoxy-benzenesulfonyl)-methyl-amino]-phenoxy}-benzoic acid]: the inhibition at 10 µM stood at 94%.

In the case of `Cc1c(Cl)cccc1S(=O)(=O)Nc1ccc(Oc2cc(Nc3ccc(F)c(F)c3)cc(C(=O)O)c2)cc1` [18:4, 3-[4-(3-Chloro-2-methyl-benzene-sulfonylamino)-phenoxy]-5-(3,4-difluoro-phenylamino)-benzoic acid], the inhibition at 10 µM came out at 98%.

As for `Cc1c(F)cccc1S(=O)(=O)Nc1ccc(Oc2ccc(N(C)C(=O)c3ccc(OC(C)C)cc3)c(C(=O)O)c2)cc1` [11:11], the “% inh.” value amounted to 72%.

As for `CCCCc1ccc(C(=O)Nc2ccc(Oc3ccc(NC(=O)c4ccc(CCCC)cc4)c(C(=O)O)c3)cc2C(=O)O)cc1` [4:1, 5-[3-carboxy-4-(4-butyl-benzamido)phenyloxy]-2-(4-butylbenzamido)benzoic acid], the inhibition at 10 µM was determined as 99%.

With `O=C(Nc1ccc(Oc2ccc([N+](=O)[O-])c(C(=O)O)c2)cc1C(=O)O)c1ccc(C(F)(F)F)cc1` [3:2, 2-nitro-5-[4-(4-trifluoromethyl-benzoylamino)-3-carboxy-phenoxy]benzoic acid], the inhibition at 10 µM came to 86%.

`CC(C)Oc1ccc(C(=O)Nc2ccc(Oc3ccc(S(=O)(=O)Nc4ccc(F)c(F)c4)cc3)cc2C(=O)O)cc1` [25:6, 5-[4-(3,4-Difluoro-phenylsulfamoyl)-phenoxy]-2-(4-isopropoxybenzoyl-amino)benzoic acid]: the inhibition at 10 µM was 100%.
